Columns and labels:
[1] = system: P. falciparum M1 aminopeptidase; design: method as in ref [23] (a number printed in a supplementary file, which may have a reference list of its own: not looked up in the article's list); details: ref [23]; cited from earlier work
[2] = system: P. falciparum 3D7 trophozoites; assay: Metabolomic fingerprint profiling LC-MS; format: cell-based, Plasmodium falciparum; design: UDP-D-glucose / ADP-D-glucose: unit not given here
[3] = system: P. falciparum M17 aminopeptidase; design: method as in ref [23] (a number printed in a supplementary file, which may have a reference list of its own: not looked up in the article's list); details: ref [23]; cited from earlier work
P. falciparum = assay: EC50 listed in S2 Table Metabolomics (used to set the concentration tested); format: cell-based; details: Plasmodium falciparum; EC50 used for Factor_XEC50 in metabolomics; read-out: EC50_nM
[4] = system: PfCDPK1, PfPK6, PfCK2, PfGSK3, PfCLK1, Pfmap2, PfPK7, PfNek2, PfNek4, FIKK4.2, FIKK10.2, PfCK1, PfPK5; assay: Thermal Shift Assay on recombinant Pf kinases; format: binding, P. falciparum; details: 2 µM kinase, 5 molar excess of compound
PfPMT = PfPMT (Plasmodium falciparum, UniProt Q8IDQ9); assay: PfPMT gene replacement yeast growth; details: 100µM
Chain of PfPMT (Q8IDQ9 whole entry): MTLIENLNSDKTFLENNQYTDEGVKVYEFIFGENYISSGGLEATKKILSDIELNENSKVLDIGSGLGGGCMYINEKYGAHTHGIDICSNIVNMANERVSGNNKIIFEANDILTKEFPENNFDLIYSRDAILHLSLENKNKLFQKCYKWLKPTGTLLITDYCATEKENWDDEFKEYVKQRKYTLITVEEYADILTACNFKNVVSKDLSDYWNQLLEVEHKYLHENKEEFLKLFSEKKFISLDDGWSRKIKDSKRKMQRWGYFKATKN

PfMTIP-MyoA = target: T1, PfMTIP-MyoA (Plasmodium falciparum, UniProt Q8I4W8); assay: SPR MTIP-MyoA PPI; format: binding, P. falciparum
T1 construct: made in house; host or cells: E. coli BL21 DE3 (peptide)
T1 sequence (Q8I4W8 entry or part of it): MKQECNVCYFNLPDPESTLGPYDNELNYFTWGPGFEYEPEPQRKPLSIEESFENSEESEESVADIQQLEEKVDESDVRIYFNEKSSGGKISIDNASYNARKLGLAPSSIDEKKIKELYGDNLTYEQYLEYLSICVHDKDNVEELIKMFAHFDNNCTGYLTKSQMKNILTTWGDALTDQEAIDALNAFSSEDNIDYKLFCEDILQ
Protocol: Atg8-Atg3, Aldolase-TRAP, and Aldolase-MTRAP, MTIP-MyoA, GAP50-FactorH protein-protein interaction (PPI) inhibitor and Surface Plasmon Resonance screening to identify protein-protein interaction inhibitors, Bosch group (Atg8-Atg3 interactions are published in ref [38], rest are not or as noted below). In a primary screen, the Malaria Box compounds were screened at 5 µM final concentration in 1x PBS supplemented with 0.01% (v/v) P20 and 1% (v/v) DMSO using a Biacore 3000 instrument. While one protein was covalently attached to the chip surface via amine coupling, the analyte was passed over the chip in the presence and absence of Malaria Box compounds. Every 12th injection a positive control was passed over the chip to ensure constant binding of the partner protein during the duration of the experiment. Malaria Box compounds resulting in more than 25% decrease in binding of the two proteins to each other were further considered in a dose-response screen ranging from 50 µM to 200 nM. Similar to the primary screen, a positive control, consisting of the protein partner alone in the absence of small molecule compounds, was passed over the flow cells to ensure that the chip surface had not decayed over the course of the experiment. All SPR interaction studies were performed as previously described. […]

[5] = metabolite level change after treatment

In the case of `c1ccc(Cn2c(N=Nc3c(Nc4ccccc4)ccc4ccccc34)nc3ccccc32)cc1` [MMV666023], the “inhibition of M1 in words” value [1] is given as “moderate competitive inhibitors”, the Acetyllysine ([2]; S2 Table Metabolomics, metabolite Acetyllysine) is given as 0.5853 and the N-acetyl-L-ornithine ([2]; S2 Table Metabolomics, metabolite N-acetyl-L-ornithine) is given as 0.306. For the same compound, the N-carbamoyl-L-aspartate ([2]; S2 Table Metabolomics, metabolite N-carbamoyl-L-aspartate) was 1.052, the NADPH ([2]; S2 Table Metabolomics, metabolite NADPH) was -0.03386 and the dAMP ([2]; S2 Table Metabolomics, metabolite dAMP) was 0.6013. It also gave a dCMP ([2]; S2 Table Metabolomics, metabolite dCMP) of -0.4205, a dTDP ([2]; S2 Table Metabolomics, metabolite dTDP) of 0.3507 and a dTMP ([2]; S2 Table Metabolomics, metabolite dTMP) of 0.8714. It also gave a dTTP ([2]; S2 Table Metabolomics, metabolite dTTP) of -0.2342, a dihydroorotate ([2]; S2 Table Metabolomics, metabolite dihydroorotate) of 1.31 and an orotate ([2]; S2 Table Metabolomics, metabolite orotate) of -0.6227. It also gave a DLH ([2]; S2 Table Metabolomics, peptide DLH) of -0.403, a DLS/SDL/SID ([2]; S2 Table Metabolomics, peptide DLS/SDL/SID) of -0.4178 and a PD ([2]; S2 Table Metabolomics, peptide PD) of 0.5075. For the same compound, the PEE ([2]; S2 Table Metabolomics, peptide PEE) was 0.08891, the PVNF ([2]; S2 Table Metabolomics, peptide PVNF) was -0.6731 and the 3-phosphoglycerate ([2]; metabolite 3-phosphoglycerate, S2 Table Metabolomics) was 0.03204. The ADP-D-glucose ([2]; metabolite ADP-D-glucose, S2 Table Metabolomics) was -0.0135, the ATP ([2]; metabolite ATP, S2 Table Metabolomics) was -0.2499 and the CDP ([2]; metabolite CDP, S2 Table Metabolomics, change in metabolite level after compound treatment) was 0.1136. It also gave a D-sedoheptulose-1/7-phosphate ([2]; metabolite D-sedoheptulose-1/7-phosphate, S2 Table Metabolomics, change in metabolite level after compound treatment) of 0.2353, an FAD ([2]; metabolite FAD, S2 Table Metabolomics) of 0.06401 and a GMP ([2]; metabolite GMP, S2 Table Metabolomics, change in metabolite level after compound treatment) of -0.6431. The “NAD+” value ([2]; metabolite NAD+, S2 Table Metabolomics) was 0.6404, the “NADP+” value ([2]; metabolite NADP+, S2 Table Metabolomics) was -0.009365 and the “Octoluse Bisphosphate” value ([2]; metabolite Octoluse Bisphosphate, S2 Table Metabolomics, change in metabolite level after compound treatment) was -0.1419. The Pyroglutamic acid ([2]; metabolite Pyroglutamic acid, S2 Table Metabolomics) was -0.07348, the UDP-D-glucose ([2]; metabolite UDP-D-glucose, S2 Table Metabolomics) was 0.05216 and the UDP-D-glucuronate ([2]; metabolite UDP-D-glucuronate, S2 Table Metabolomics) was -0.02666. The UDP-N-acetyl-glucosamine ([2]; metabolite UDP-N-acetyl-glucosamine, S2 Table Metabolomics) was 0.05509, the UDP ([2]; metabolite UDP, S2 Table Metabolomics, change in metabolite level after compound treatment) was 0.01697 and the UMP ([2]; metabolite UMP, S2 Table Metabolomics, change in metabolite level after compound treatment) was -0.4292. The UTP ([2]; metabolite UTP, S2 Table Metabolomics, change in metabolite level after compound treatment) was -0.424, the a-ketoglutarate ([2]; metabolite a-ketoglutarate, S2 Table Metabolomics) was -0.06383 and the citrate/isocitrate ([2]; metabolite citrate/isocitrate, S2 Table Metabolomics, change in metabolite level after compound treatment) was 0.04119. It also gave a cytidine ([2]; metabolite cytidine, S2 Table Metabolomics) of 0.02473, a dATP ([2]; metabolite dATP, S2 Table Metabolomics) of 0.1105 and a dGMP/AMP ([2]; metabolite dGMP/AMP, S2 Table Metabolomics, change in metabolite level after compound treatment) of 0.2165. It also gave a fumarate ([2]; metabolite fumarate, S2 Table Metabolomics, change in metabolite level after compound treatment) of 0.9246, a glucose-1/6-phosphate ([2]; metabolite glucose-1/6-phosphate, S2 Table Metabolomics, change in metabolite level after compound treatment) of -0.4138 and a glycerate ([2]; metabolite glycerate, S2 Table Metabolomics, change in metabolite level after compound treatment) of 0.03697. For the same compound, the guanine ([2]; metabolite guanine, S2 Table Metabolomics, change in metabolite level after compound treatment) was -0.03399, the guanosine ([2]; metabolite guanosine, S2 Table Metabolomics, change in metabolite level after compound treatment) was -0.2347 and the hypoxanthine ([2]; metabolite hypoxanthine, S2 Table Metabolomics) was -0.04929. The indole ([2]; metabolite indole, S2 Table Metabolomics) was 0.02614, the inosine ([2]; metabolite inosine, S2 Table Metabolomics, change in metabolite level after compound treatment) was -0.0248 and the 2_3-Diphosphoglyceric acid [2, 5] was 0.0759. The 4-phosphopantothenate [2, 5] was 0.08574, the 6-phospho-D-gluconate [2, 5] was 0.115 and the FMN [2, 5] was -0.1537. The IMP [2, 5] was 0.4441, the Pyrophosphate [2, 5] was 0.2082 and the Sedoheptoluse bisphosphate [2, 5] was 0.1996. The cyclic-AMP [2, 5] was 0.01699, the glutathione disulfide [2, 5] was 0.1273 and the lactate [2, 5] was -0.7178. For the same compound, the myo-inositol [2, 5] was -0.07069, the nicotinate ([2]; metabolite nicotinate, S2 Table Metabolomics) was 0.08369 and the ornithine ([2]; metabolite ornithine, S2 Table Metabolomics) was 0.4536. For the same compound, the phosphoenolpyruvate ([2]; metabolite phosphoenolpyruvate, S2 Table Metabolomics) was -0.0645, the pyruvate ([2]; metabolite pyruvate, S2 Table Metabolomics, change in metabolite level after compound treatment) was -0.159 and the ribose-phosphate ([2]; metabolite ribose-phosphate, S2 Table Metabolomics) was -0.0332. The sarcosine/alanine ([2]; metabolite sarcosine/alanine, S2 Table Metabolomics, change in metabolite level after compound treatment) was -0.02978, the sn-glycerol-3-phosphate ([2]; metabolite sn-glycerol-3-phosphate, S2 Table Metabolomics) was -0.2072 and the succinate/methylmalonic acid ([2]; metabolite succinate/methylmalonic acid, S2 Table Metabolomics, change in metabolite level after compound treatment) was 0.009689. For the same compound, the uridine ([2]; metabolite uridine, S2 Table Metabolomics, change in metabolite level after compound treatment) was -0.07701, the xanthosine ([2]; metabolite xanthosine, S2 Table Metabolomics, change in metabolite level after compound treatment) was -0.07995 and the “inhibition of M17 in words” value [3] was “moderate competitive inhibitors”. The EC50 (P. falciparum) was 36.8 nM.

For `O=C(Nc1ccc(Cl)c(Cl)c1)Nc1ccc(Cl)c(Cl)c1` [MMV665852], the “thermal shift (ΔTm)” value [4] was “approximately 2 °C”.

With `Cc1cccc(-n2ncc3c(=O)[nH]c(-n4nc(C)cc4NC(=O)c4cc5ccccc5o4)nc32)c1` [MMV403679] the “thermal shift (ΔTm)” value [4] was “approximately 2 °C”.

In the case of `O=C(NC(c1ccccc1)c1ccc2cccnc2c1O)c1ccccc1` (stereo not drawn) [MMV666080], the “candidate inhibitors of PfPMT activity (yeast functional assay)” value (PfPMT) is reported as “candidate inhibitors of PfPMT activity” and the “identified against the PfMTIP-MyoA interaction” value (PfMTIP-MyoA) is reported as “identified against the PfMTIP-MyoA interaction”.

For `Cc1ccc(CN2CCC(C(=O)Nc3ccc(-c4cc5ccccc5[nH]4)cc3)CC2)o1` [MMV666071], the “identified against the PfMTIP-MyoA interaction” value (PfMTIP-MyoA) was “identified against the PfMTIP-MyoA interaction”.

Source: PMC4965013, “Open Source Drug Discovery with the Malaria Box Compound Collection for Neglected Diseases and Beyond” (PLoS Pathogens, 2016)
